The record followed here is patent US7118895B2, “Process for producing aglycon by using diglycosidase and flavor-improved food containing the aglycon and converting agent to be used in the process” (Amano Enzyme Inc., priority 2000, dated 2006).

Test [1] relates to β-Xylosidase derived from pectinase G. The test is described as follows: Reactivity toward various isoflavone glycosides (HPLC). The format is biochemical. Details: unit not given here. The settings on record: 55 °C, pH 4.0. A digest of the protocol:
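Aglycone liberation was measured by reversed-phase HPLC (260 nm, calibration-curve quantitation) after ethanol extraction at 0, 1, 3 and 6 h. Reactions ran at 55° C, pH 4.0 (20 mM acetate), with each glycoside (from 2 mM methanol stock) and 0.75 AU/mL enzyme solution.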

A further test concerns Purified diglycosidase. The test is described as follows: Influence of free glucose on diglycosidase activity. It counts as biochemical, Penicillium multicolor IAM7153. The note with it: isolated aglycon amount at glucose 0% and 0.5 hour = 100%. The protocol:
Purified diglycosidase was diluted with 20 mM acetate buffer of pH 4.0 to prepare a 0.75 AU/mL enzyme solution.
With a glucose solution was mixed 10 μL of each 2 mM substrate solution described in Example 2, and 20 mM acetate buffer of pH 4.0 was added thereto to be a liquid volume of 210 μL. Further, 40 μL of the enzyme solution was added and reaction was carried out at a final liquid volume of 250 μL. Adjustment of the glucose solution to be added allows glucose to exist in the reaction mixture in the range of 0 to 20%. The reaction was carried out at 55° C. and the existence of isoflavone glycosides and aglycon isoflavones was detected by HLPC at 0, 0.5, 1, and 3 hours of the reaction.

Test [2] deals with Diglycosidase derived from A. fumigatus. The test is described as follows: Reactivity toward various isoflavone glycosides (HPLC). Details: unit not given here. The note with it: 55 °C, pH 4.0. It counts as biochemical, Aspergillus fumigatus. The protocol:
Diglycosidase was diluted with an acetate buffer of pH 4.0 to prepare a 0.75 AU/mL enzyme solution. As references, a similar operation was conducted using β-glucosidase (manufactured by Fluka) derived from Aspergillus niger, β-glucosidase (manufactured by Sigma) derived from almond, β-xylosidase derived from pectinase G (manufactured by Amano Enzyme Inc.). Each of purified products of isoflavone glycosides (glycitin, acetylglycitin, malonylglycitin, daidzin, acetyldaidzin, malonyldaidzin, genistin, acetylgenistin, malonylgenistin, all manufactured by Nacalai Tesque, Inc.) was dissolved in methanol to prepare each 2 mM substrate solution. The reaction was carried out by mixing 10 μL of a substrate solution, 200 μL of 20 mM acetate buffer (pH 4.0), and 40 μL of each purified enzyme solution at a total liquid volume of 250 μL. The reaction was carried out at 55° C. and isolation of an aglycon isoflavone from an isoflavone glycoside in the reaction mixture was detected by HLPC at 0, 1, 3, and 6 hours of the reaction.
To the reaction mixture was added 700 μL of ethanol, followed by stirring and ultrasonication. After centrifugation at 15,000 rpm and 4° C. for 10 minutes, the supernatant was filtered through a filter and then the filtrate was applied to HPLC.
The isoflavone glycoside and aglycon isoflavone contained in the filtrate was separated and detected by a high performance liquid chromatography (HPLC, Shimadzu CLASS LC-10 system) using TOSOH TSK gel ODS-80TM column (manufactured by Tosoh Corporation). […] The absorbance at 260 nm was detected by a UV detector (Shimadzu, SPD-10AV). Using purified products (manufactured by Nacalai Tesque, Inc.) of the above isoflavone glycosides and aglycon isoflavones, the isoflavone glycoside and aglycon isoflavone were quantitatively determined according to a calibration curve method. By the way, unless otherwise stated, the measuring conditions of HPLC herein mean those described in the example.

Structures are written as SMILES.

Regarding `O=C(O)CC(=O)OC[C@H]1O[C@@H](Oc2ccc3c(=O)c(-c4ccc(O)cc4)coc3c2)[C@H](O)[C@@H](O)[C@@H]1O` [malonyldaidzin, 6″-O-malonyldaidzin], the aglycon is 0 in test [1] (Reaction time 0 h); 0.4 in test [1] (Reaction time 1 h); 1.6 in test [1] (Reaction time 3 h); 3.3 in test [1] (Reaction time 6 h); 0 in test [2] (Reaction time 0 h); 10 in test [2] (Reaction time 1 h). The figures for the aglycon in test [2] (Reaction time 3 h) and in test [2] (Reaction time 6 h) were 20.5 and 32.3, respectively. The glucoside in test [1] (Reaction time 0 h) was found to be 100; in test [1] (Reaction time 1 h) it was 99.6; in test [1] (Reaction time 3 h), 98.4; in test [1] (Reaction time 6 h), 96.7; in test [2] (Reaction time 0 h) it was 100; in test [2] (Reaction time 1 h) it was 90. Also, the glucoside is recorded as 79.5 in test [2] (Reaction time 3 h) and 67.7 in test [2] (Reaction time 6 h). The “Isolation of isoflavone aglycons by diglycosidase in presence of glucose” value (“Isolation of isoflavone aglycons” below) in the test on Purified diglycosidase (Glucose concentration 0 %) is on record as 100%; in the test on Purified diglycosidase (Glucose concentration 2 %), 125.3%; in the test with Purified diglycosidase (Glucose concentration 4 %), 132.1%; in the test with Purified diglycosidase (Glucose concentration 8 %), 125.4%; in the test with Purified diglycosidase (Glucose concentration 20 %), 98.1%.
Turning to `O=C(O)CC(=O)OC[C@H]1O[C@@H](Oc2cc(O)c3c(=O)c(-c4ccc(O)cc4)coc3c2)[C@H](O)[C@@H](O)[C@@H]1O` [malonylgenistin, 6″-O-malonylgenistin], the aglycon in test [1] (Reaction time 0 h) was found to be 0; in test [1] (Reaction time 1 h) it was 0; in test [1] (Reaction time 3 h), 0.6; in test [1] (Reaction time 6 h), 2; in test [2] (Reaction time 0 h), 0; in test [2] (Reaction time 1 h), 2.4. Besides, the figures for the aglycon in test [2] (Reaction time 3 h) and in test [2] (Reaction time 6 h) were 5.2 and 8.2, respectively. Also, the glucoside in test [1] (Reaction time 0 h) came out at 100; in test [1] (Reaction time 1 h) it was 100; in test [1] (Reaction time 3 h) it was 99.4; in test [1] (Reaction time 6 h), 98; in test [2] (Reaction time 0 h), 100; in test [2] (Reaction time 1 h), 97.6. For the same compound, the glucoside in test [2] (Reaction time 3 h) was 94.8; in test [2] (Reaction time 6 h), 91.8. Moreover, the “Isolation of isoflavone aglycons” value in the test on Purified diglycosidase (Glucose concentration 0 %) turned out to be 100%; in the test with Purified diglycosidase (Glucose concentration 2 %), 152%; in the test on Purified diglycosidase (Glucose concentration 4 %) it was 164.7%; with Purified diglycosidase (Glucose concentration 8 %), 163.5%; with Purified diglycosidase (Glucose concentration 20 %), 139.5%.
Consider `COc1cc2c(=O)c(-c3ccc(O)cc3)coc2cc1O[C@@H]1O[C@H](COC(=O)CC(=O)O)[C@@H](O)[C@H](O)[C@H]1O` [malonylglycitin, 6″-O-malonylglycitin], for which the aglycon in test [1] (Reaction time 0 h) is recorded as 0; in test [1] (Reaction time 1 h), 0; in test [1] (Reaction time 3 h), 0; in test [1] (Reaction time 6 h), 0.4; in test [2] (Reaction time 0 h), 0; in test [2] (Reaction time 1 h) it was 0.4. The figures for the aglycon in test [2] (Reaction time 3 h) and in test [2] (Reaction time 6 h) were 0.8 and 1.4, respectively. For the same compound, the glucoside in test [1] (Reaction time 0 h) turned out to be 100; in test [1] (Reaction time 1 h), 100; in test [1] (Reaction time 3 h) it was 100; in test [1] (Reaction time 6 h), 99.6; in test [2] (Reaction time 0 h), 100; in test [2] (Reaction time 1 h), 99.6. In addition, the glucoside in test [2] (Reaction time 3 h) is reported as 99.2; in test [2] (Reaction time 6 h) it was 98.6. In addition, the “Isolation of isoflavone aglycons” value was 100% in the test on Purified diglycosidase (Glucose concentration 0 %); 121.4% with Purified diglycosidase (Glucose concentration 2 %); 127.6% in the test on Purified diglycosidase (Glucose concentration 4 %); 128.6% with Purified diglycosidase (Glucose concentration 8 %); 116.4% in the test with Purified diglycosidase (Glucose concentration 20 %).
